Legend:
Settings in all cases: read-out: IC50
[1] = target: T1, Inhibitor of nuclear factor kappa-B kinase subunit beta (Homo sapiens, UniProt O14920); experiment: biochemical; assay type: cell-based
T1 sequence (O14920 whole entry): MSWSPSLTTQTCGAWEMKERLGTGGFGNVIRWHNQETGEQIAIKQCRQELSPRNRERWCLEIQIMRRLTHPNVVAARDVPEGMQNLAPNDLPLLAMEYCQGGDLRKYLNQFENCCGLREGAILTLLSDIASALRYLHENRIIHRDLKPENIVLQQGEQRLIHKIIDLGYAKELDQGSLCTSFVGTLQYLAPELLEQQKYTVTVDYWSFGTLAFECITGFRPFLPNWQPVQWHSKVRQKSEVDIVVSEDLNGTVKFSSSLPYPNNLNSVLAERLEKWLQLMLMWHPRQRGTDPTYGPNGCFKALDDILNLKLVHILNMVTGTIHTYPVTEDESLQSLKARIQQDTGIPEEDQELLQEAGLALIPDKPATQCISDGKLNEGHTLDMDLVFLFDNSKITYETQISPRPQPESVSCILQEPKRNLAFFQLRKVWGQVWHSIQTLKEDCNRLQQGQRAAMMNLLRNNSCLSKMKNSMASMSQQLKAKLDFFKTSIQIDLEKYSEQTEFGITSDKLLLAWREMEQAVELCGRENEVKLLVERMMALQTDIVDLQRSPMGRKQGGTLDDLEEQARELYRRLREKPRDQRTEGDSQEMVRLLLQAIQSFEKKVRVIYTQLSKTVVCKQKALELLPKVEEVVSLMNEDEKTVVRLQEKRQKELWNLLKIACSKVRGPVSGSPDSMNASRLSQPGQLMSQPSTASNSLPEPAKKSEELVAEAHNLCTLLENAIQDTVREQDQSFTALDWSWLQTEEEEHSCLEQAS

[2] = target: Mitogen-activated protein kinase 8 (Homo sapiens, UniProt P45983); experiment: Inhibition of JNK1 expressed in Escherichia coli or baculovirus-infected insect cells by TR-FRET assay
[3] = target: RAC-alpha serine/threonine-protein kinase (Homo sapiens, UniProt P31749); experiment: Inhibition of AKT1 expressed in Escherichia coli or baculovirus-infected insect cells by scintillation proximity assay
RAC-alpha serine/threonine-protein kinase, sequence (P31749 whole entry): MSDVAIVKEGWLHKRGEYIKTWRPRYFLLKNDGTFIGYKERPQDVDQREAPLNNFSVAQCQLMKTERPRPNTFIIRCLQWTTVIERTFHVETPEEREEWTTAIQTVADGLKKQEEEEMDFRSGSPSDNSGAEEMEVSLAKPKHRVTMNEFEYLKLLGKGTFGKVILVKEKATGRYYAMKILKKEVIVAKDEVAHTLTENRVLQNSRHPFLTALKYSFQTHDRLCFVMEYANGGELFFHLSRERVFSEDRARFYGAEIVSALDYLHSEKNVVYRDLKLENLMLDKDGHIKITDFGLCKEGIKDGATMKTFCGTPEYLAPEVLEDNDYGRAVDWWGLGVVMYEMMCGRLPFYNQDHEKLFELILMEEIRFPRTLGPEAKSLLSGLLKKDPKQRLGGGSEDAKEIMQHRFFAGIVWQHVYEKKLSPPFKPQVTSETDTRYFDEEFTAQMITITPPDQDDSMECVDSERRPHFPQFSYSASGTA

Mitogen-activated protein kinase 8, sequence (P45983 whole entry): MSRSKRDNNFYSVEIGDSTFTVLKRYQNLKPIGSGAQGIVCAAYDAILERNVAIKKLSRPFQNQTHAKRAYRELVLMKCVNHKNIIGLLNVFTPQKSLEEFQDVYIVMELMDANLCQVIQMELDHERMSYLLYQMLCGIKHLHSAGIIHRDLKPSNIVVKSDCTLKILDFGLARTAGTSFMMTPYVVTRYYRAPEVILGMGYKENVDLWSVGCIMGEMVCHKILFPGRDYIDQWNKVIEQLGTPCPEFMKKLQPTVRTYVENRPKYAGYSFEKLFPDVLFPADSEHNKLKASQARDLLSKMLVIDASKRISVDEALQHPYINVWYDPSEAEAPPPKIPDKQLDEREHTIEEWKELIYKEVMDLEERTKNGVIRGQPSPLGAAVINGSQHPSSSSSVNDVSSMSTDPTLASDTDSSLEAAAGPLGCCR

Cc1cc2c(-c3ccc(S(=O)(=O)N(C)CCO)cc3)ccnc2[nH]1
IC50 [1]: 15 nM

Nc1ccc(-c2cnc3[nH]cc(-c4ccoc4)c3c2)cc1
IC50 [2]: < 500 nM

NCC(NC(=O)c1ccc(-c2ccnc3[nH]ccc23)s1)c1ccccc1 (stereo not drawn)
IC50 [3]: 190 nM

From ChEMBL document CHEMBL1817560, “Selectivity of kinase inhibitor fragments” (J Med Chem, 2011)
